Source: PMC4323687 (Neurobiology of disease, 2014)

Columns and labels:
[1] = biological target: Aβ42 seeding-mediated fibril growth (Homo sapiens, UniProt P05067); experiment: Aβ42 seeding polymerization assay; type: biochemical; conditions: for fibril growth and number of amyloid fibrils by TEM: 3 hours incubation of seeds and monomers with compound; for inhibition at 10 µM: read-out: inhibition of seeded fibril growth (seeding capacity of short fibrils)
monomeric Aβ42 = monomeric Aβ42 (Homo sapiens, UniProt P05067); experiment: Fibrillization of monomeric Aβ42; type: biochemical
[2] = Pharmacokinetics and brain distribution after single administration; type: in vivo, C57/BL6 mice
[3] = test system: mThy1-hAPP751 APPtg mouse model of AD; experiment: Aβ immunostaining of plaques in frontal cortex and hippocampus of APPtg mice; type: in vivo; conditions: same treatments as E16
[4] = test system: mThy1-hAPP751 APPtg mouse model of AD; experiment: Electron microscopy of neuropil and amyloid in APPtg mouse brain; type: in vivo; conditions: same treatments as E16
[5] = test system: mThy1-hAPP751 APPtg mouse model of AD; experiment: Immunoblot of Aβ42 species in brain membrane fraction of APPtg mice; type: in vivo; conditions: vs vehicle-treated APPtg mice
[6] = test system: mThy1-hAPP751 APPtg mouse model of AD; experiment: Aβ42 ELISA in APPtg mouse brain; type: in vivo; conditions: vs vehicle-treated APPtg mice
[7] = test system: mThy1-hAPP751 APPtg mouse model of AD; experiment: Immunohistochemistry of synaptophysin, MAP2, NeuN and GFAP in APPtg mouse brain; type: in vivo; conditions: for synapse loss (SYN-immunoreactivity) in the frontal cortex / synapse loss (SYN-immunoreactivity) in the hippocampus: vs APPtg mice treated with PBS
Slack (Slo2.2) channels = conditions: ref Yang et al., 2006; cited from earlier work
protofibrillar Aβ42 = protofibrillar Aβ42 (Homo sapiens, UniProt P05067); experiment: Conversion of Aβ42 protofibrils into mature fibrils; type: biochemical; conditions: 48 hours, ThT
primary cortical neurons = conditions: 0.5, 5, 10, 20 and 50 μM, 24 hours, MTT
Aβ = conditions: ref Colombo et al., 2009; cited from earlier work

Chain of monomeric Aβ42 (P05067 672-713 limits assumed): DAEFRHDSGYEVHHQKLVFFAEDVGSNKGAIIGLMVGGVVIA
Chain of Aβ42 seeding-mediated fibril growth (P05067 672-713 limits assumed): as above
Chain of protofibrillar Aβ42 (P05067 672-713 limits assumed): as above

SMILES	IC50 [1] [µM]	fibril growth and number of amyloid fibrils by TEM [1]	inhibition at 10 µM [1] [%]	IC50 (monomeric Aβ42) [µM]	amyloid fibrils in neuropil by electron microscopy [4]	status of axons/neurites in neuropil by electron microscopy [4]	levels of Aβ42 monomers and intermediate species (immunoblot, 82E1) [5]	Aβ42 levels by ELISA, guanidine-HCl brain extractions [6]	Aβ42 levels by ELISA, membrane fractions [6]	synapse loss (SYN-immunoreactivity) in the frontal cortex [7]	synapse loss (SYN-immunoreactivity) in the hippocampus [7]	MAP2 immunoreactivity (neuronal damage) in the frontal cortex ([7]; vs vehicle-treated APPtg mice)	MAP2 immunoreactivity (neuronal damage) in the hippocampus ([7]; vs vehicle-treated APPtg mice)	NeuN immunoreactivity in the frontal cortex ([7]; vs vehicle-treated APPtg mice)	further results
Oc1c(Cl)cc(Cl)cc1Sc1cc(Cl)cc(Cl)c1O [bithionol]	5.33	significant inhibition of fibril growth	60 to 80	5.1	only few fibrillar aggregates	axons were comparable to controls	significant reduction	significant and dramatic reduction	significant and dramatic reduction	significantly reversed	significantly reversed	reversion of the damage	reversion of the damage	increase	half-life ([2]; C57/BL6, mouse, brain, iv, 10 mg/kg): 1.77 h; half-life ([2]; C57/BL6, mouse, plasma, iv, 10 mg/kg): 7.62 h; Aβ42-immunoreactivity in the hippocampus (% area of neuropil) vs vehicle APPtg [3]: significant decrease; GFAP immunoreactivity (astroglial reactivity) in the frontal cortex ([7]; vs vehicle-treated APPtg mice): strong and significant reduction; activation of Slack channels (Slack (Slo2.2) channels): robust activator of Slack channels
Oc1c(Cl)cc(Cl)c(Cl)c1Cc1c(O)c(Cl)cc(Cl)c1Cl [hexachlorophene]	5.9	significant inhibition of fibril growth	60 to 80	5	–	–	comparable to that observed in the vehicle-treated APPtg mice	did not significantly affect	did not significantly affect	–	–	–	–	–	Kp ([2]; C57/BL6, mouse, in vivo, iv, 10 mg/kg): 0.5; brain penetration ([2]; single IV administration 10 mg/kg): 50%
O=C1c2c(O)ccc(O)c2C(=O)c2c(NCCNCCO)ccc(NCCNCCO)c21 [mitoxantrone]	1.7	significant inhibition of fibril growth	80 to 90	2.5	only few fibrillar aggregates	axons were comparable to controls	significant reduction	significant and dramatic reduction	significant and dramatic reduction	significantly reversed	significantly reversed	reversion of the damage	reversion of the damage	increase	inhibition of protofibril to fibril conversion (protofibrillar Aβ42): > 80%; effect of compound alone on cellular viability of neurons (primary cortical neurons): significant reduction of the cellular viability only at high concentrations; Aβ oligomerization and fibril formation (Aβ): can block Aβ oligomerization and fibril formation
